Assay results published in patent US10166237B2, “Compounds and methods for inducing chondrogenesis” (The Scripps Research Institute, priority 2011, dated 2019).

Assays:
human chondrocytes = experiment: proliferation of human chondrocytes; type: cell-based
[1] = tested on: primary bovine chondrocytes; experiment: inhibition of cytokine-induced nitric oxide release (Greiss reaction); type: cell-based
Method in brief: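 Primary bovine articular chondrocytes or bovine cartilage explants were exposed to TNFα plus oncostatin M, with compound present. Chondrocyte supernatant NO was measured by Greiss reagent at 540 nm. Explants were given 20 ng/ml TNFα and 10 ng/ml oncostatin M for 72 h with compound throughout, and GAG release was measured.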

female 129SVE mice = experiment: surgically induced cartilage injury (ACL, MCL, MMTL transection); type: in vivo; conditions: IA injection days 7, 14 and 21
Description: Surgical transection of the ACL, MCL, and MMTL was performed to induce cartilage injury in female 129SVE mice. Mice were dosed by IA injection on days 7, 14 and 21. The medial tibial plateaus from representative mice were assessed on day 28 (FIG. 4A). Histomorphometric analyses and grading by two blinded observers using a modified OARSI scoring system determined the joint severity scores of the […] tibial plateau on day 28 after surgical induction (FIG. 4B). At 28 days, peripheral blood was collected by retro-orbital bleeding and the serum was used to determine the cleaved type II collagen fragments (CTX-II levels) by ELISA (Serum Pre-Clinical Cartilaps, Immunodiagnostic Systems, Fountain Hills, Ariz.). n=15/treatment group (FIG. 4C).

C57BL/10 mice = experiment: collagenase VII-induced knee joint damage; type: in vivo; conditions: 10 μM intra-articular on days 7 and 21
Description: IA injections of C57BL/10 mice with collagenase VII (12 U/knee) induced joint damage through digestion of the ligament of the knee. The mice were dosed intra-articularly on days 7 and 21 with 10 μM PRO1 or PBS. On day 56 the mice were euthanized for histopathological analyses. Parafin blocks were sectioned at 5 um and stained with Safranin O, and representative data was collected for the PBS- and PRO1-treated mice (FIG. 3A). The total medial tibial plateau joint score was determined by two blinded observers and averaged to represent the data shown here using the OARSI scoring system (FIG. 3B). Peripheral blood was collected from each mouse by retro-orbital bleeding on day 1, day 13 and day 56. The circulating COMP was determined by the Animal COMP ELISA kit according to the manufacturer's instructions (MDBioproducts, St Paul, Minn.). Pooled data, 10 mice/group (FIG. 3C).

[2] = in vivo, 0.05 mg/kg
[3] = tested on: bovine cartilage explants; experiment: cytokine-induced GAG release from cartilage explants ex vivo; type: cell-based; conditions: TNFα and oncostatin M, 72 hours; up to
From the text: (§1) In the screen, hMSCs were used as a surrogate to future targeting of the resident MSCs with the cartilage joint. It was in that setting upon which we identified PRO1. In a joint injury, the primary cell type a therapeutic would have contact with is the chondrocyte. Although cartilage or chondrocyte-targeted screening has not lead to the development of a successful drug modifying osteoarthritis drug (DMOAD) to date, it is believed that a stem cell-based therapeutic would protect and even repair the existing chondrocytes. Therefore, protection of the articular chondrocytes and cartilage from a mature bovine knee was assessed. PRO1 and its analogues were incubated with primary bovine chondrocytes or cartilage explants cultures grown in the presence of TNFα and oncostatin M to mimic the cytokine-induced damage that can occur during OA. In the presence of the cytokine cocktail, in vitro cultured primary chondrocytes released 4-5 fold more nitric oxide (NO) than the untreated chondrocytes (50 μM vs 10 μM) as measured by the Greiss reaction. […]
(§2) Primary hMSCs were plated (10,000/well) in 384-well plates and cultured for 18 days. […] 20 μl of the supernatant was mixed with 20 μl of the Greiss reagent and quantitated at 540 nm as described by the Promega kit instructions. […]

chondrocytes = experiment: toxicity in chondrocytes; type: cell-based; conditions: 100 μM
hMSCs [4] = experiment: toxicity in hMSCs; type: cell-based, human; conditions: 100 μM
synovial fibroblasts = experiment: toxicity in synovial fibroblasts; type: cell-based; conditions: 100 μM
hMSC = experiment: type II collagen and aggrecan immunohistochemistry in hMSC pellet culture; type: cell-based, human; conditions: 21 days
From the text: as §1, §2

hMSCs [5] = experiment: type II collagen expression in hMSC cultures (18 day assay); type: cell-based, human
Description: The chondrogenic differentiation event was initiated quickly even though a fully differentiated chondrocyte phenotype cannot be assessed prior to 14 days in culture. In an 18 day assay, compound treatment was only required for the first 48 hrs and followed by removal and replacement of the media (in the absence of stimuli, FIG. 2B). The promotion of chondrogenic differentiation was not altered or enhanced upon longer treatment with the stimuli (data not shown).
Primary hMSCs were plated (10,000/well) in 384-well plates and cultured for 18 days. The cells were fixed with 4% formalin, permeabilized with triton (0.5%), digested with 0.5 mg/ml collagenase II to unwind the collagen fibrils, and then immunostained with an antibody recognizing type II collagen. DAPI (2 μg/ml) was added to visualize the nuclei. The chondrogenic nodules stained positive for type II collagen but lacked expression of type X collagen and osteocalcin, markers for chondrocyte hypertrophy and osteoblasts, respectively (not shown). 10,000 hMSCs (passages 3-5) were plated in Greiner 384-well low-bottom plates on day 1. The cells were allowed to adhere and stimulated for 48 hrs (days 2-3) with the indicated stimuli in MSC growth media (Millipore). The media was then removed and replaced with serum-free DMEM for an additional 16 days. This media was replenished on days 10 and 15 of the assay. Primary bovine chondrocytes were isolated from the articular surfaces from mature knees. After one week of culture, 8,500 cells were trypsinized and plated in Greiner 384-well white clear-bottom plates in growth media. […] 20 μl of the supernatant was mixed with 20 μl of the Greiss reagent and quantitated at 540 nm as described by the Promega kit instructions. Bovine cartilage explants (cut in circular explants in a 96 well plate) were cultured in the presence of 20 ng/ml TNFα and 10 ng/ml oncostatin M to induce GAG release for 72 hours (FIG. 2D). PRO1 was added at the indicated concentrations during the entire 72 hrs. […] Parafin sections were hydrated, incubated in low pH Antigen unmasking solution (Vector) at 90 C for 10 minutes, permeabilized with 0.1% collagenase II (only for the sections stained with type II collagen) for 10 minutes, blocked with CAS block for 10 minutes and then incubated with the primary antibody (type II collagen, aggrecan or Timp1) antibody (Abcam) overnight at 4 C. The antigens were visualized through standard ABC detection methods and developed with DAB. Representative of 3 sections stained/treatment group (independent experiments).

HEK 293 cells = experiment: toxicity in HEK 293 cells; type: cell-based; conditions: 100 μM

Plasma Conc. [2]: BLQ | EC50 (hMSCs [5]): 0.08 µM | Tmax (in vivo; 0.05 mg/kg): 1 h | bioavailability (in vivo; 0.05 mg/kg): ~22% | AUC(0-inf) (in vivo; 0.05 mg/kg, AUC0-inf): 0.342 µM·h | Cmax (in vivo; 0.05 mg/kg, Cmax): ~100 nM | concentration at 1 h (in vivo; 0.05 mg/kg, Plasma Conc.): 134 nM | half-life (in vivo; 0.05 mg/kg, T1/2): ~2 h | concentration at 1 h (in vivo; Plasma Conc.): 102 nM | concentration at 3 h (in vivo; Plasma Conc.): 33.6 nM | concentration at 7 h (in vivo; Plasma Conc.): 11.8 nM
Compound: O=C(O)c1ccccc1C(=O)Nc1ccc(-c2ccccc2)cc1 [AKT]
proliferative advantage (human chondrocytes): < 1.5 fold | block of cytokine-induced release of NO ([1]; TNFα and oncostatin M cocktail, up to): up to 70% | IC50 ([1]; second value of the cell (after the slash), TNFα and oncostatin M, 48 hours, read-out: NO INHIBTION μM IC50): 0.45 µM | cartilage damage (female 129SVE mice; day 28): Protection | CTX-II peptide in plasma (female 129SVE mice; day 28, ELISA): Inhibition | circulating COMP levels (C57BL/10 mice; ELISA): Reduced | cartilage damage (C57BL/10 mice; day 56): Reduced Cartilage Damage | reduction of cytokine-induced release of glycosaminoglycans (GAG) [3]: up to 60% | toxicity (chondrocytes): No toxicity | toxicity (hMSCs [4]): No toxicity | toxicity (synovial fibroblasts): No toxicity | type II collagen and aggrecan expression (hMSC): increase type II collagen and aggrecan expression | induction of chondrogenic differentiation of hMSCs (hMSCs [5]; compared with known inducers TGFβ3, BMP7 or BMP2, FIG. 2B): more potent and efficient | toxicity (HEK 293 cells): No toxicity
